From ChEMBL document CHEMBL1146228, “Stellettins L and M, cytotoxic isomalabaricane-type triterpenes, and sterols from the marine sponge Stelletta tenuis” (J Nat Prod, 2007)

Assays:
Assay type in all cases: functional, cell-based
AGS = test: Cytotoxicity against AGS cells after 48 hrs by MTT assay; settings: Homo sapiens
HT-29 = test: Cytotoxicity against HT29 cells after 48 hrs by MTT assay; settings: Homo sapiens, HT-29, 48 h
SMMC-7721 = test: Cytotoxicity against SMMC7721 cells after 48 hrs by MTT assay; settings: Homo sapiens, SMMC-7721, 48 h
A549 = test: Cytotoxicity against A549 cells after 48 hrs by MTT assay; settings: Homo sapiens, A549, 48 h

O=c1[nH]cc(F)c(=O)[nH]1 [FLUOROURACIL]
IC50 (AGS): 370 µM | IC50 (HT-29): 540 µM | IC50 (SMMC-7721): 51 µM | IC50 (A549): 9.2 µM

CC(/C=C/C=C(\C)C(=O)O)=C\C=C\C(C)=C1\C(=O)C[C@H]2[C@@]3(C)CC[C@H](O)C(C)(C)[C@@H]3CC[C@]12C [STELLETTIN L]
IC50 (AGS): 3.9 µM | IC50 (HT-29): 33 µM | IC50 (SMMC-7721): 120 µM | IC50 (A549): 28 µM

CC(/C=C/C=C(C)/C=C/C=C(\C)C(=O)O)=C1/C(=O)C[C@H]2[C@@]3(C)CC[C@H](O)C(C)(C)[C@@H]3CC[C@]12C [STELLETTIN M]
IC50 (AGS): 2.1 µM | IC50 (HT-29): 42 µM | IC50 (SMMC-7721): 90 µM | IC50 (A549): 34 µM

CC[C@]1(O)C[C@H]2CN(CCc3c([nH]c4ccccc34)[C@@](C(=O)OC)(c3cc4c(cc3OC)N(C=O)[C@H]3[C@@](O)(C(=O)OC)[C@H](OC(C)=O)[C@]5(CC)C=CCN6CC[C@]43[C@@H]65)C2)C1 [VINCRISTINE]
IC50 (AGS): < 0.12 µM | IC50 (HT-29): 0.21 µM | IC50 (SMMC-7721): < 0.12 µM | IC50 (A549): 0.36 µM
